Test results as given in US20080076747A1, “Fungicidal Mixtures” (BASF AKTIENGESELLSCHAFT, priority 2004, published 2008).

Legend:
Botrytis cinerea = assay: Activity against the gray mold pathogen Botrytis cinerea in the microtiter test; assay type: cell-based; details: 1 ppm; microtiter plate, 405 nm, day 7 after inoculation
From the text: For the microtiter tests, the active compounds were formulated separately as a stock solution having a concentration of 10 000 ppm in DMSO.
In the microtiter tests, the measured parameters were offset with the growth of the active-compound-free control variant and the fungus- and active-compound-free blank value, in order to determine the relative growth in % of the pathogens in the individual active compounds.
The stock solutions were mixed according to the ratio, pipetted into a microtiter plate (MTP) and diluted to the stated active compound concentration using a malt-based aqueous nutrient medium for fungi. An aqueous spore suspension of Botrytis cinerea was then added. The plates were placed in a water vapor-saturated chamber at temperatures of 18° C. Using an absorption photometer, the MTPs were measured at 405 nm on day 7 after the inoculation.

Alternaria solani = assay: Activity against early blight of tomato caused by Alternaria solani; assay type: in vivo, Alternaria solani on tomato; details: 4 ppm; tomato cultivar Goldene Königin, sprayed 1 day before infection, rated after 5 days
Description: (§1) The active compounds were separately or jointly prepared as a stock solution comprising 25 mg of active compound which was made up to 10 ml using a mixture of acetone and/or DMSO and the emulsifier Uniperol® EL (wetting agent having emulsifying and dispersing action based on ethoxylated alkylphenols) in a volume ratio of solvent/emulsifier of 99 to 1. The mixture was then made up with water to 100 ml. This stock solution was diluted with the solvent/emulsifier/water mixture described to the concentration of active compounds stated below.
(§2) The visually determined percentages of infected leaf areas were converted into efficacies in % of the untreated control:
The efficacy (E) is calculated as follows using Abbot's formula: E=(1−α/β)·100 α corresponds to the fungicidal infection of the treated plants in % and β corresponds to the fungicidal infection of the untreated (control) plants in % […]
Leaves of potted plants of the cultivar “Goldene Königin” were sprayed to runoff point with an aqueous suspension having the concentration of active compound stated below. […] After 5 days, the disease on the untreated but infected control plants had developed to such an extent that the infection could be determined visually in %.

Pyrenophora teres = assay: Activity against net blotch of barley caused by Pyrenophora teres, protective application; assay type: in vivo, Pyrenophora [syn. Drechslera] teres on barley; details: barley seedlings, rated after 6 days
Description: as §1, §2
The efficacy (E) is calculated as follows using Abbot's formula: E=(1−α/β)·100 α corresponds to the fungicidal infection of the treated plants in % and β corresponds to the fungicidal infection of the untreated (control) plants in %
An efficacy of 0 means that the infection level of the treated plants corresponds to that of the untreated control plants; an efficacy of 100 means that the treated plants were not infected.
Leaves of potted barley seedlings were sprayed to runoff point with an aqueous suspension having the concentration of active compound stated below. After 5 days, the test plants were inoculated with an aqueous spore suspension of Pyrenophora [syn. Drechslera] teres, the net blotch pathogen. The test plants were then placed in a greenhouse at temperatures between 20 and 24° C. and 95 to 100% relative atmospheric humidity. After 6 days, the extent of the disease development was determined visually in % infection of the entire leaf area.

CO/C=C(/C(=O)OC)c1ccccc1CO/N=C(C)/C=C/c1ccc(Cl)cc1 [enestroburin (I), methyl 2-{2-[3-(4-chlorophenyl)-1-methylallylideneaminooxymethyl]phenyl}-3-methoxyacrylate]
Observed activity (%) (Botrytis cinerea): 12%
Observed activity (%) (Alternaria solani): 22%
Observed activity (%) (Pyrenophora teres; 63 ppm, sprayed 5 days before inoculation): 56%

Cc1ccc(C(C)NC(=O)[C@@H](NC(=O)OC(C)C)C(C)C)cc1 (stereo partly drawn) [iprovalicarb (II-11), isopropyl [(1S)-2-methyl-1-(1-p-tolylethylcarbamoyl)propyl]carbamate]
Observed activity (%) (Alternaria solani): 0%

manganese ethylenebis(dithiocarbamate) (polymer) complex zinc salt [mancozeb (II-1)]
Observed activity (%) (Pyrenophora teres; 16 ppm, protective): 0%
Observed activity (%) (Pyrenophora teres; 250 ppm, protective): 22%

zinc ammoniate ethylenebis(dithiocarbamate) [metiram (II-4)]
Observed activity (%) (Botrytis cinerea): 7%
